From US8580794B2 (AbbVie Inc., priority 2009, dated 2013)

Legend:
RS4;11 cells [1] = settings: Blood, 2008, Vol. 111, 2300-2309; cited from earlier work
GST-Bc1-2 = GST-Bc1-2 (Homo sapiens, UniProt P10415); test: Time Resolved-Fluorescence Resonance Energy Transfer (TR-FRET) Bcl-2 binding assay with F-Bak peptide probe; settings: GST-Bcl-2 1 nM, F-Bak probe 100 nM, Tb-anti-GST 1 nM; '<' = below limit of detection; read-out: TR-FRET Bcl-2 Binding Ki
RS4;11 cells [2] = test: RS4;11 Cell Viability Assay (CellTiter Glo); assay type: cell-based; settings: Homo sapiens, RS4-11, 48 h, 50,000 cells per well, 10% human serum;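 note: RS4,11 acute lymphoblastic leukemia cells, viability as percent of untreated control cells, EC50 for loss of viable cells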
Procedure: The acute lymphoblastic leukemia (ALL) cell line RS4;11 was used as the primary human cell line to assess the cellular activity of Bcl-2 selective agents in vitro and their efficacy in vivo.
Cell cytotoxicity EC50 values were assessed using CellTiter Glo (Promega) according to the manufacturer's recommendations. The EC50 values were determined as a percentage of viable cells following treatment compared to the untreated control cells.

GST-Bc1-2, sequence (P10415 whole entry): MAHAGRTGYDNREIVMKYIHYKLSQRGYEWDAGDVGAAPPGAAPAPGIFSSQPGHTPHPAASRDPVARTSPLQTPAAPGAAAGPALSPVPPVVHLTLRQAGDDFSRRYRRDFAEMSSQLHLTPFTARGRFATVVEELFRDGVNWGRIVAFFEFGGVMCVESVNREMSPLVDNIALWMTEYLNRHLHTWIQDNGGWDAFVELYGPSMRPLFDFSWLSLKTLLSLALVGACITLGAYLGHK

**Q.** With `CN(C)CC[C@H](CSc1ccccc1)Nc1ccc(S(=O)(=O)NC(=O)c2ccc(N3CCN(Cc4ccccc4-c4ccc(Cl)cc4)CC3)cc2)cc1[N+](=O)[O-]` [ABT-737, N-(4-(4-((4′-chloro(1,1′-biphenyl)-2-yl)methyl)piperazin-1-yl)benzoyl)-4-(((1R)-3-(dimethylamino)-1-((phenylsulfanyl)methyl)propyl)amino)-3-nitrobenzenesulfonamide] as the molecule, how does the “sensitivity of RS4;11 cells to inhibitor” value (RS4;11 cells [1]) read?
**A.** sensitive

**Q.** For `CC1(C)CCC(CN2CCN(c3ccc(C(=O)NS(=O)(=O)c4ccc(NC[C@H]5CC[C@H](C(=O)O)CC5)c([N+](=O)[O-])c4)c(Oc4cnc5[nH]ccc5c4)c3)CC2)=C(c2ccc(Cl)cc2)C1` [Example 380, trans-4-{[(4-{[4-(4-{[2-(4-chlorophenyl)-4,4-dimethylcyclohex-1-en-1-yl]methyl}piperazin-1-yl)-2-(1H-pyrrolo[2,3-b]pyridin-5-yloxy)benzoyl]sulfamoyl}-2-nitrophenyl)amino]methyl}cyclohexanecarboxylic acid], which Ki (GST-Bc1-2) is on record?
**A.** < 0.01 nM

**Q.** What about the EC50 (RS4;11 cells [2]) of the same molecule?
**A.** 134 nM

**Q.** Which Ki (GST-Bc1-2) does the source give for `CC1(C)CCC(CN2CCN(c3ccc(C(=O)NS(=O)(=O)c4cnc5c(c4)c(Cl)cn5CC4CCOCC4)c(Oc4cnc5[nH]ccc5c4)c3)CC2)=C(c2ccc(Cl)cc2)C1` [Example 389, 4-(4-{[2-(4-chlorophenyl)-4,4-dimethylcyclohex-1-en-1-yl]methyl}piperazin-1-yl)-N-{[3-chloro-1-(tetrahydro-2H-pyran-4-ylmethyl)-1H-pyrrolo[2,3-b]pyridin-5-yl]sulfonyl}-2-(1H-pyrrolo[2,3-b]pyridin-5-yloxy)benzamide] here?
**A.** 0.774 nM

**Q.** And the EC50 (RS4;11 cells [2])?
**A.** 733 nM
